The text below walks through data of patent publication EP1731520A1, “Pyrrolo[2,3-d]pyrimidine derivatives which are antagonists of adenosine A1, A2A, and A3” (OSI Pharmaceuticals, Inc., priority 1999, dated 2001).

Where two headings read alike, the source gives them in different places.

Experiment [1] relates to human A1 adenosine receptor. Conditions: synthetic agonist; cited from earlier work.
The target in a further experiment is T1, human A3 receptor (Homo sapiens, UniProt P0DMS8).
T1 sequence (P0DMS8 1-318): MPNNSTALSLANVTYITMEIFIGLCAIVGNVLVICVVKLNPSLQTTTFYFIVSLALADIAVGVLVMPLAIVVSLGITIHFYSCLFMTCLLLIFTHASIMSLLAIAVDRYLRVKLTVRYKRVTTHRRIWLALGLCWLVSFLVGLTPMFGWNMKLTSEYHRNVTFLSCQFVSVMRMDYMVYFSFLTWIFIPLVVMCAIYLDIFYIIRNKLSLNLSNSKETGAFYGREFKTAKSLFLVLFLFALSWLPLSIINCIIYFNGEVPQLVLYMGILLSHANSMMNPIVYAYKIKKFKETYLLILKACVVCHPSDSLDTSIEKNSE
Description: Displacement binding of [3H]CPX, yeast membranes expressing hA3R.

Experiment [2] concerns the target human adenosine A1 receptor (Homo sapiens, UniProt P30542). The experiment can be described thus: Yeast β-Galactosidase reporter gene assay (strain CY12660): inhibition of NECA-induced β-Galactosidase activity. Conditions: read-out: Al Yeast IC50.
Experiment [3] addresses human A1 receptor subtype (Homo sapiens, UniProt P30542).
In experiment [4] the target is human A2a receptor subtype (Homo sapiens, UniProt P29274). Description: Adenosine 2a receptor subtype competition radioligand binding, [3H] CGS-21680, HEK293 membranes. Particulars: for Ki-A2a (selectivity versus other three subtypes): Table 16, Adenosine A2a Receptor Selective Compounds.
Experiment [5] has as its target T2, human A2b receptor subtype (Homo sapiens, UniProt P29275).
T2 sequence (P29275 1-332): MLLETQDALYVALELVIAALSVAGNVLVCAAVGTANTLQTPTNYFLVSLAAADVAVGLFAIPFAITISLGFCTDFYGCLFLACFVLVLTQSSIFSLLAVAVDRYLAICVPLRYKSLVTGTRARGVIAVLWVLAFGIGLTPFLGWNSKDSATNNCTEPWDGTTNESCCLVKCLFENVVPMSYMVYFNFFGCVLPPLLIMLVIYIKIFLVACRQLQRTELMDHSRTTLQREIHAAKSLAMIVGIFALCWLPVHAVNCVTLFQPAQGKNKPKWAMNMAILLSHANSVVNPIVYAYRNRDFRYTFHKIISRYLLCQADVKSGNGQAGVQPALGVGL
Description: Adenosine 2b receptor subtype competition radioligand binding, [3H] DPCPX, HEK293 membranes.

Experiment [6] deals with T3, human A3 receptor subtype (Homo sapiens, UniProt P0DMS8).
T3 sequence (P0DMS8 1-318): T1 sequence (P0DMS8 1-318)
Description: Adenosine 3 receptor competition radioligand binding, [125I] AB-MECA, HEK293 membranes. Particulars: for Ki-A3 (selectivity versus other three subtypes): Table 17, Adenosine A3 Receptor Selective Compounds.

A further experiment deals with human A2a receptor. Conditions: read-out: Reported Ki; agonist; cited from earlier work.
The mark [7] stands for this setting: read-out: Binding Ki (nM) A2a, Table 13.
Setting [8] is: read-out: Binding Ki (nM) A2b, Table 13.

human A2a receptor subtype, sequence (P29274 whole entry): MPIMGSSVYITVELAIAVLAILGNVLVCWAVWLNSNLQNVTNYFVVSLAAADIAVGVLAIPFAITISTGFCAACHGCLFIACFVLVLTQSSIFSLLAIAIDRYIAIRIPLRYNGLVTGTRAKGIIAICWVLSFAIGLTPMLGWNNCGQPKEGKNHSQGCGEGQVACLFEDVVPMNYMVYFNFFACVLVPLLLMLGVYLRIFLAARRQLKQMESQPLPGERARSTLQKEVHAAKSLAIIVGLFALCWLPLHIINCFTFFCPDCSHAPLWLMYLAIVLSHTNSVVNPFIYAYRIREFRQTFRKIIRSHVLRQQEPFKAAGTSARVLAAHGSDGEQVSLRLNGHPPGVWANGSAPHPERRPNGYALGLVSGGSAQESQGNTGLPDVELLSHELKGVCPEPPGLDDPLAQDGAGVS
human A1 receptor subtype, sequence (P30542 whole entry): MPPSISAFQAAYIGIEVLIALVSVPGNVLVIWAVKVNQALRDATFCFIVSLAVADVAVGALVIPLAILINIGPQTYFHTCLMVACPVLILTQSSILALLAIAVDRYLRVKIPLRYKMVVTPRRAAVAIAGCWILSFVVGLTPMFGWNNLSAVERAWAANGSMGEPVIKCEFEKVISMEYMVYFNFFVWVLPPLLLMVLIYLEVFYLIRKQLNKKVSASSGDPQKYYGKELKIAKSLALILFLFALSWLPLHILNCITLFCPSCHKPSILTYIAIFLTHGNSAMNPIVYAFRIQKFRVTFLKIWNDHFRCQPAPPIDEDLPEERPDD
human adenosine A1 receptor, sequence (P30542 whole entry): as above

As to `CC(Cc1ccccc1)Nc1ncnc2c1ncn2[C@@H]1O[C@H](CO)[C@@H](O)[C@H]1O` (single isomer, unassigned; (-)) [PIA, (-)-N6-(2-phenylisopropyl)-adenosine], in experiment [1], the reported affinity result was “approximately 50 nM”.

Regarding `Nc1nc2ccc(Cl)cc2c2nc(-c3ccco3)nn12` [CGS-15943], on human A3 receptor, the IC50 was determined as 55.5 nM.

With `Cc1[nH]c2nc(-c3ccsc3)nc(N[C@H]3CC[C@H](O)CC3)c2c1C` [Compound 704], the concentration for half-maximal inhibition (IC50) in experiment [2] (Table 7, Effect of C2-Substituent) is 297 nM. Also, in experiment [3] (read-out: Al Binding Ki, Table 7, Effect of C2-Substituent), the inhibition constant (Ki) was 61.1 nM.

As for `Cc1[nH]c2nc(-c3ccccc3)nc(NCCCO)c2c1C` [Compound 1015], the IC50 in experiment [2] (Table 10, Effect of N6-Substituent) worked out at 3710 nM.

`CC(=O)NCCNc1nc(-c2ccccc2)nc2[nH]c(C)c(C)c12` [Compound 1300]: the Ki in experiment [4] (setting [7]) lay in the range of 18 to 48.6 nM.

As to `CNC(=O)NCCCNc1nc(-c2ccccc2)nc2[nH]c(C)c(C)c12` [Compound 1310], the activity at 10 µM in experiment [4] (read-out: % activity @ 10 µM, A2a) came out at 76%.

Regarding `Cc1[nH]c2nc(-c3ccccc3)nc(NCCNC(=O)C3(N)CC3)c2c1C` [Compound 1313], the “% activity @ 10 µM, A1” value in experiment [3] (Table 13, in %, 10 µM) was 30%. In addition, the “% activity @ 10 µM, A2a” value in experiment [4] (Table 13, in %, 10 µM) is 65%.

Turning to `Cc1[nH]c2nc(-c3ccccc3)nc(NCCCNC(=O)CCN)c2c1C` [Compound 1315], the Ki was 3.4 nM in experiment [5] (setting [8]); 507 nM in experiment [6] (read-out: Binding Ki (nM) A3, Table 13); 75 nM in experiment [3] (read-out: Binding Ki (nM) A1, Table 13, Profile of Selective Adenosine Antagonists); 720 nM in experiment [4] (setting [7]).

`Cc1[nH]c2nc(-c3ccccc3)nc(NCCCNC(=O)CN)c2c1C` [Compound 1316]: the inhibition constant Ki in experiment [5] (setting [8]) came to 710 nM; in experiment [6], 97 nM; in experiment [4] (setting [7]) it was 710 nM. Further, the “Ki-A3 (selectivity versus other three subtypes)” value in experiment [6] is “* (at least 10 times more selective than other three subtypes.)”.

Take `O[C@H]1CC[C@H](Nc2nc(-c3ccccc3)nc3[nH]ccc23)CC1` [Compound 1318]: the inhibition constant Ki in experiment [5] is 2310 ± 926 nM; in experiment [6], 630 ± 76 nM.

Consider `O[C@H]1CC[C@H](Nc2nc(-c3cccc(F)c3)nc3[nH]ccc23)CC1` [Compound 1319, 4-(trans-4-hydroxycyclohexyl)amino-2-(3-fluorophenyl)-7H-pyrrolo [2,3d] pyrimidine], for which the Ki in experiment [5] was 802 nM; in experiment [6] it was 270 nM; in experiment [4], 206 nM.

Turning to `O[C@H]1CC[C@H](Nc2nc(-c3cccc(Cl)c3)nc3[nH]ccc23)CC1` [Compound 1320, 4-(trans-4-hydroxycyclohexyl)amino-2-(3-chlorophenyl)-7H-pyrrolo[2,3d] pyrimidine], the Ki is 530 nM in experiment [5], 419 nM in experiment [6] and 531 nM in experiment [4].

In the case of `O[C@H]1CC[C@H](Nc2nc(-c3ccncc3)nc3[nH]ccc23)CC1` [Compound 1321, 4-(trans-4-hydroxycyclohexyl)amino-2-(4-pyridyl)-7H-pyrrolo[2,3d]pyrimidine], the inhibition constant (Ki) in experiment [5] worked out at 1030 nM; in experiment [4] it was 131 nM. Moreover, the activity at 10 µM in experiment [6] (read-out: % activity @ 10 µM, A3) is 54%.

For the compound `CC(=O)NCCNc1nc(-c2ccccc2)nc2[nH]c(CNc3ccccc3)cc12` [Compound 1404], in experiment [4] (read-out: Binding Data Ki (nM) A2a, Table 14), the Ki was determined as 31 nM.

As for `NC(=O)[C@H]1CCCN1c1nc(-c2cccc(F)c2)nc2[nH]ccc12` [Compound 1600], in experiment [4], the “Ki-A2a (selectivity versus other three subtypes)” value is “* (at least 5 times more selective than other three subtypes.)”.

As for `OC[C@H]1CCCN1c1nc(-c2ccncc2)nc2[nH]ccc12` [Compound 1601], in experiment [4], the “Ki-A2a (selectivity versus other three subtypes)” value is reported as “* (at least 5 times more selective than other three subtypes.)”.

Take `NC(=O)[C@H]1CCCN1c1nc(-c2ccncc2)nc2[nH]ccc12` [Compound 1602]: the “Ki-A2a (selectivity versus other three subtypes)” value in experiment [4] is “* (at least 5 times more selective than other three subtypes.)”.

On to `OC[C@H]1CCCN1c1nc(-c2ccccc2)nc2[nH]ccc12` [Compound 1603], for which, in experiment [4], the “Ki-A2a (selectivity versus other three subtypes)” value is “* (at least 5 times more selective than other three subtypes.)”.

`c1ccc(-c2cc3c(N4CCNCC4)nc(-c4ccncc4)nc3[nH]2)cc1` [Compound 1604]: the “Ki-A2a (selectivity versus other three subtypes)” value in experiment [4] is listed as “* (at least 5 times more selective than other three subtypes.)”.

Turning to `OC[C@H]1C[C@@H](O)CN1c1nc(-c2ccncc2)nc2[nH]ccc12` [Compound 1605], in experiment [4], the “Ki-A2a (selectivity versus other three subtypes)” value is recorded as “* (at least 5 times more selective than other three subtypes.)”.

For the compound `COC(=O)C(C)(C)NCc1cc2c(N3CCC[C@@H]3CO)nc(-c3ccccc3)nc2[nH]1` [Compound 1606], the “Ki-A2a (selectivity versus other three subtypes)” value in experiment [4] was “* (at least 5 times more selective than other three subtypes.)”.

For `OCC1CCCN(c2nc(-c3ccncc3)nc3[nH]ccc23)C1` (centres unmarked) [Compound 1607], the “Ki-A2a (selectivity versus other three subtypes)” value in experiment [4] is recorded as “* (at least 5 times more selective than other three subtypes.)”.

In the case of `CC(=O)NCCNc1nc(-c2ccncc2)nc2[nH]c(C)c(CN(C)Cc3ccccc3)c12` [Compound 1608], in experiment [4], the “Ki-A2a (selectivity versus other three subtypes)” value is recorded as “* (at least 5 times more selective than other three subtypes.)”.

As to `COC(=O)CC1CCN(c2nc(-c3ccccc3)nc3[nH]c(COc4cccc(Cl)c4)cc23)C1` (centres unmarked) [Compound 1716], the “Ki-A3 (selectivity versus other three subtypes)” value in experiment [6] is given as “* (at least 10 times more selective than other three subtypes.)”.

Regarding `NC(=O)CC1CCN(c2nc(-c3ccccc3)nc3[nH]c(COc4cccc(Cl)c4)cc23)C1` (centres unmarked) [Compound 1717], the “Ki-A3 (selectivity versus other three subtypes)” value in experiment [6] is recorded as “* (at least 10 times more selective than other three subtypes.)”.

As to `OCC1CCCN(c2nc(-c3ccccc3)nc3[nH]c(COc4cccc(Cl)c4)cc23)C1` (centres unmarked) [Compound 1718], the “Ki-A3 (selectivity versus other three subtypes)” value in experiment [6] is recorded as “* (at least 10 times more selective than other three subtypes.)”.

As for `CNC(=O)NCCCNc1nc(-c2ccc(Cl)cc2)nc2[nH]ccc12` [Compound 1719], the “Ki-A3 (selectivity versus other three subtypes)” value in experiment [6] is “* (at least 10 times more selective than other three subtypes.)”.

As to `c1ccc(-c2nc(NCCc3cnc[nH]3)c3cc[nH]c3n2)cc1` [Compound 1720, [2-(3H-Imidazol-4-yl)-ethyl]-(2-phenyl-7H-pyrrolo[2,3-d]pyrimidin-4-yl)-amine], the “A3 receptor binding affinity relative to reference compound 1308” value in experiment [6] (competition radio ligand binding) is “greater than 10 times”.

For the compound `CCNC(=O)[C@H]1O[C@@H](n2cnc3c(N)ncnc32)[C@H](O)[C@@H]1O` [NECA, 5'-N-ethylcarboxamidoadenosine], the Ki at human A2a receptor is […].

By IC50 is commonly meant the concentration that gives 50% inhibition. As a reminder, the Ki is a dissociation constant, usually derived from enzyme kinetics or from competition with a known ligand.
